Data published in paper PMC12168924, “Construction of the reduced nicotinamide adenine dinucleotide salvage pathway in artificial cells and its application in amino acid synthesis” (Chemical Science, 2025).

How the values were obtained:
[1] = molecular target: T1, nicotinamide phosphoribosyltransferase (NAMPT) (Chitinophaga pinensis, UniProt A0A979FZM9); assay: HPLC of NMN formation; assay type: biochemical; conditions: PRPP made in situ by RPPK, 5 mM MgCl2, pH 8.0, 37 °C
T1 construct: gene Cpin_0607
T1 sequence (A0A979FZM9 1-471): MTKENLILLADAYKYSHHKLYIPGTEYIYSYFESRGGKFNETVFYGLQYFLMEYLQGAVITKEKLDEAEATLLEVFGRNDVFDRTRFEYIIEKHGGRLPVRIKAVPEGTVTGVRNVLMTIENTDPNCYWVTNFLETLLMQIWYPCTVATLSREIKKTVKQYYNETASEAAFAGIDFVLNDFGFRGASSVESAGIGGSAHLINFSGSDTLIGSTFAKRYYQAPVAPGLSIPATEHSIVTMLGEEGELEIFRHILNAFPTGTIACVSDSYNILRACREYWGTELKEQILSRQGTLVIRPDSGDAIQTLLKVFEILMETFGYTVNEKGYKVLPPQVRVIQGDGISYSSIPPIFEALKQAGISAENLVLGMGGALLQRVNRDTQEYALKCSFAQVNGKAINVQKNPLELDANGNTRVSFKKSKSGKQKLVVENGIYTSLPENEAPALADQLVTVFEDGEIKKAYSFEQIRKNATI

[2] = molecular target: T2, ribose-phosphate pyrophosphokinase (RPPK) (Mycobacterium tuberculosis, UniProt P9WKE3); assay: HPLC of AMP formation, inhibition at rising ADP; assay type: biochemical; conditions: inhibitor; assay per b47: R-5-P, ATP, MgCl2, 40 mM KH2PO4, Tris-HCl pH 8.0, 37 °C
T2 construct: gene prs

HPLC of NMN depletion = substrate: NC(=O)c1ccc[n+]([C@@H]2O[C@H](COP(=O)(O)O)[C@@H](O)[C@H]2O)c1; assay: HPLC of NMN depletion; assay type: biochemical, Acinetobacter baylyi; conditions: assay per b51: ATP, MgCl2, 40 mM KH2PO4, 50 mM Tris-HCl pH 8.0, 37 °C, kinetic details in supplement

T2 sequence (P9WKE3 whole entry): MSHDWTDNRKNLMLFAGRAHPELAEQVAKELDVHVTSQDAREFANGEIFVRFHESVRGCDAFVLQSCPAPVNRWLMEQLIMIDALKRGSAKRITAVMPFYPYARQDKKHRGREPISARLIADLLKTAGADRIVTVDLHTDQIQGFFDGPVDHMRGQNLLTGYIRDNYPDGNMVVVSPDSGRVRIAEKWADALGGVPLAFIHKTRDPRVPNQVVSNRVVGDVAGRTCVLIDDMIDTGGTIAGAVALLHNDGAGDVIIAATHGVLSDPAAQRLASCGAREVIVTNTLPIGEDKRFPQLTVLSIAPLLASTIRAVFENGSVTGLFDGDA

Molecule: O=P(O)(O)OC[C@H]1O[C@H](OP(=O)(O)OP(=O)(O)O)[C@H](O)[C@@H]1O [PRPP]
- HPLC of NMN formation [1]: PRPP, an enzyme cascade was employed to synthesize PRPP for assessing NAMPT activity

Molecule: Nc1ncnc2c1ncn2[C@@H]1O[C@H](COP(=O)(O)OP(=O)(O)O)[C@@H](O)[C@H]1O [ADP]
- HPLC of AMP formation, inhibition at rising ADP [2]: ADP was found to significantly inhibit RPPK activity

B1: nicotinamide mononucleotide adenylyltransferase (NMNAT) (Acinetobacter baylyi ADP1) (protein)
chain: MYKFDYLVFIGRFQPFHFAHLQTIQIALQQSREVIIALGSAQPERNIKNPFLAEERQKMILANFSAEDQARIHFVNIIDVYNDQKWVEQVKQLVNAIIESRSHVGLIGHFKDESSYYLKLFPEWTMVELESLKESMSATPMREAYYEGKIIESAFPEGTIQFLKTFQDSEIYKQLQQKYRAQDSSNLI
- Km (HPLC of NMN depletion): 396.6 ± 59.6 µM
